From paper PMC10721329, “Quisinostat is a brain-penetrant radiosensitizer in glioblastoma” (JCI Insight, 2023)
Values joined by “and” are separate entries in the source; they are usually repeats but may differ in a detail not shown here. Equal values may be shown once.

Tests used:
[1] = Stability in mouse brain homogenate (perfused, non-perfused) at 37°C; type: in vitro ADME; settings: 100 nM; for [QST], % of control: mouse brain homogenate, 37 C; for [QST], % of control / raw response (Data Point): replicates; for %stability ([QST], % of control, Mean) / raw response, Mean / raw response (Data Point): mouse brain, 37C
Procedure: Hydroxamic acid–based compounds have been reported to display poor stability and high plasma clearance due to the presence of arylesterases and carboxylesterases in rodent blood ([34]). Therefore, we measured the stability of QST in mouse plasma and brain to determine whether drug degradation occurred during our sample preparations and equilibrium dialyses for the determination of unbound drug level (performed at 37°C). […] QST degradation was also observed in mouse brain homogenate (Figure 6B). However, perfusion of mice before brain collection prevented rapid drug degradation in the brain matrix. […] Degradation of QST can also be constrained if plasma and brain samples are processed at 4°C (Supplemental Figure 4A). All subsequent sample preparations were therefore performed on ice-cold baths to avoid degradation of QST in our PK analyses. […] The observed stability is probably due to the absence of esterases in human matrices, which are responsible for degradation of QST ([34]). Because we employed QST in several in vitro studies (Figures 1–4), the stability of the molecule was also tested in the cell media used to culture GSCs (neurobasal medium; see Methods).
Stability Study in Mouse Plasma, Mouse Brain, Human Plasma, Human Brain, and Neural […]
The stability of QST was determined in BALB/c mouse plasma, male nude athymic perfused and nonperfused mouse brain homogenate (1:9 w/v of PBS; pH 7.4), human brain (obtained from VRL Eurofins) homogenate (1:4 w/v of PBS; pH 7.4), pooled human plasma (Innovative Research), and neurobasal media. QST stock solutions (1 mM) were prepared in acetonitrile, subsequently diluted in a 40% methanol mixture, and added t o the matrices to make final concentrations of 100 nM or 10 nM. Then 50 or 30 µL of either plasma or brain homogenate containing QST were aliquoted into 1.5-mL microcentrifuge tubes (Eppendorf) and were incubated at either 4 °C or 37 °C for 0, 2, 4, 6, 12, or 24 hours (n = 3 at each time point). […]
Plasma and brain […]
homogenate samples were stored at −80 °C until LC-MS/MS analysis. […]

[2] = test system: 7 patient-derived GSC lines and U87; test: Dose-titration cell viability assay, whole panel; type: cell-based; settings: Homo sapiens; 7 GSC lines and U87; 3-5 days; read-out: cellular IC50 in all lines
Procedure: QST (JNJ-26481585) is a second-generation hydroxamic acid harboring remarkable selectivity toward class I HDACs, with a biochemical IC50 of 0.1 nM for HDAC1 ([13]). […] To determine the cytotoxic effects of QST, we performed a dose-titration cell viability assay in 7 patient-derived GSC lines (BT145, GB187, GB239, GB282, GB71, GB82, and GB126) and 1 long-term serum-grown human GBM cell line (U87). Because GBMs display a high degree of intratumoral heterogeneity, we used GSCs derived from both primary and recurrent GBMs that harbored distinct genetic mutations or aberrations, growth rates, MGMT promoter methylation status, and gene expression profiles (Supplemental Figure 1; supplemental material available online with this article; https://doi.org/10.1172/jci.insight.167081DS1). Cell lines were treated with various concentrations of QST (10–1000 nM), and cell viability was measured 3–5 days later (Figure 1, A and B). […]
GSCs were seeded in laminin-coated tissue culture–treated 96-well plates (clear bottom, white plate; Corning) at a density of 1000–5000 cells per well (cell line dependent) in GSC media. […] Following treatment with QST, cells were grown for 3 to 5 days (cell line dependent), and cell viability was measured and quantified. […]

[3] = test system: GB126 cells; test: Cell cycle analysis, propidium iodide flow cytometry; type: cell-based, human
Procedure: For cell cycle analysis following short -term DMSO or QST treatment in GSC cultures, approximately 1 million cells were harvested, washed in cold 1× PBS once, and fixed with 3–4 mL of ice cold 70% ethanol, added dropwise while vortexing. Cells were fixed on ice for 30 minutes and washed twice with 1× PBS. Cells were then resuspended in 500 μL of propidium iodide/RNAse staining buffer (BD Biosciences, 550825) for 15 minutes at room temperature before analysis. Data from all the samples were obtained using a Fortessa flow cytometer (BD Biosciences) and analyzed using the FlowJo software (TreeStar). Cell cycle analysis was performed in triplicate for all cell lines.

[4] = QST at IC50, 24 hours, replicates

Cn1cc(CNCC2CCN(c3ncc(C(=O)NO)cn3)CC2)c2ccccc21 [QST, quisinostat]
[QST], % of control ([1]; Non-Perfused, 0 hours): 99.9% and 101.4% and 98.8% | [QST], % of control ([1]; Non-Perfused, 2 hours): 90.9% and 101.4% and 87.2% | [QST], % of control ([1]; Non-Perfused, 6 hours): 71.4% and 72.9% and 80.4% | [QST], % of control ([1]; Non-Perfused, 24 hours): 46.8% and 49% and 47.5% | [QST], % of control ([1]; Perfused, 0 hours): 103.7% and 102.4% and 93.9% | [QST], % of control ([1]; Perfused, 2 hours): 98.2% and 99.9% | [QST], % of control ([1]; Perfused, 6 hours): 98.2% and 97.3% | [QST], % of control ([1]; Perfused, 24 hours): 85.9% (2×) and 82.9% | %stability ([QST], % of control, Mean) ([1]; Non-perfused, 0 hrs): 100.0% | raw response, Mean ([1]; Non-perfused, 0 hrs): 267333 | raw response (Data Point) ([1]; Non-perfused, 0 hrs): 267000 and 271000 and 264000 | %stability ([QST], % of control, Mean) ([1]; Non-perfused, 2 hrs): 93.1% | raw response, Mean ([1]; Non-perfused, 2 hrs): 249000 | raw response (Data Point) ([1]; Non-perfused, 2 hrs): 243000 and 271000 and 233000 | %stability ([QST], % of control, Mean) ([1]; Non-perfused, 6 hrs): 74.9% | raw response, Mean ([1]; Non-perfused, 6 hrs): 200333 | raw response (Data Point) ([1]; Non-perfused, 6 hrs): 191000 and 195000 and 215000 | %stability ([QST], % of control, Mean) ([1]; Non-perfused, 24 hrs): 47.8% | raw response, Mean ([1]; Non-perfused, 24 hrs): 127667 | raw response (Data Point) ([1]; Non-perfused, 24 hrs): 125000 and 131000 and 127000 | %stability ([QST], % of control, Mean) ([1]; Perfused, 0 hrs): 100.0% | raw response, Mean ([1]; Perfused, 0 hrs): 236333 | raw response (Data Point) ([1]; Perfused, 0 hrs): 245000 and 242000 and 222000 | %stability ([QST], % of control, Mean) ([1]; Perfused, 2 hrs): 98.7% | raw response, Mean ([1]; Perfused, 2 hrs): 233333 | raw response (Data Point) ([1]; Perfused, 2 hrs): 232000 and 236000 | %stability ([QST], % of control, Mean) ([1]; Perfused, 6 hrs): 97.6% | raw response, Mean ([1]; Perfused, 6 hrs): 230667 | raw response (Data Point) ([1]; Perfused, 6 hrs): 232000 and 230000 | %stability ([QST], % of control, Mean) ([1]; Perfused, 24 hrs): 84.9% | raw response, Mean ([1]; Perfused, 24 hrs): 200667 | raw response (Data Point) ([1]; Perfused, 24 hrs): 203000 and 196000 | IC50 [2]: 50 to 100 nM | Cell Cycle Phase, G1 [3, 4]: 37.77 and 45.07 and 43.79 | Cell Cycle Phase, G2 [3, 4]: 7.41 and 0 and 1.63 | Cell Cycle Phase, S [3, 4]: 54.82 and 54.93 and 54.58 | Mean proportion of cells in G1 ([3]; QST, 24 hours): 42% | Mean proportion of cells in G2 ([3]; QST, 24 hours): 3% | Mean proportion of cells in S ([3]; QST, 24 hours): 55%
